Results: US9181214B2 (RHIZEN PHARMACEUTICALS SA, priority 2011, dated 2015)

Target: T1, human GPR119 (Homo sapiens, UniProt Q8TDV5)
T1 construct: expressed in transfected cells; host or cells: HEK293 (transient transfection, Lipofectamine 2000)
T1 sequence (Q8TDV5 1-335): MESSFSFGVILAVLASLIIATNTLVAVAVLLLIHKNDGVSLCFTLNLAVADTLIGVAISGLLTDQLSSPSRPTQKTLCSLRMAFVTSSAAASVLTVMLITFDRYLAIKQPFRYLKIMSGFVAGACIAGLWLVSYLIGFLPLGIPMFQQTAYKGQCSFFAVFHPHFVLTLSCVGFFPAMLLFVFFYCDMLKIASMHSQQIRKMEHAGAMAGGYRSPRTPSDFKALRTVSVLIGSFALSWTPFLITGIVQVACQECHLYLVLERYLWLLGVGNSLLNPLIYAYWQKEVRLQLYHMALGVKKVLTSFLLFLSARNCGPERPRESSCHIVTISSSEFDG
Assay: In vitro cyclic AMP assay (Cisbio HTRF) in HEK293 cells transfected with human GPR119
Format: cell-based
Settings: cAMP; for activation at 10 µM: 1 h, % Induction @ 10 μM; for EC50: Emax varies between 65 to 80%
Method: A. In Vitro Cyclic AMP Assay:
cAMP measurements were done using a Cisbio dynamic 2 HTRF kit (Cisbio, Bedford, Mass.) according to the manufacturer's protocol. Briefly, HEK293 cells (0.2×10^6/well) were plated in a 24 well plate and incubated overnight at 37° C. Cells were transfected with either empty vector DNA or human GPR119 expression plasmid DNA using Lipofectamine 2000 (Invitrogen). After 24 h, transfected cells were harvested, counted and plated at 1000 cells/5 ul in a black 384 welled small volume plate. Cells were treated with desired concentrations of compounds and incubated for 60 min at room temperature. Lysis buffer containing cAMP-d2 and cryptate conjugate were added and incubated for 1 h. HRTF ratio was measured on a microplate reader (BMG Labtech., Germany) at an excitation wavelength of 337 nm and emission wavelengths of 665 and 620 nm with an integration time of 400 μsec. Data were analyzed using Graphpad Prism (Graphpad software; San Diego Calif.) for EC50 determination.
The results are as given in Table I as % Induction@ 10 μM, Table II as % Induction@ 10 μM and EC 50 in nM

activation at 10 µM (Table I) [%] | activation at 10 µM (Table II) [%] | EC50 (Table II) [nM] | EC50 (Table I) [nM] | Structure (SMILES)
37.2 | – | – | – | CC(C)(C)OC(=O)N1CCC(c2nc3cc(-c4ccc(-c5nnn[nH]5)c(F)c4)ccc3o2)CC1 [EXAMPLE-19, Tert-butyl 4-{5-[3-fluoro-4-(1H-tetrazol-5-yl)phenyl]benzo[d]oxazol-2-yl}piperidine-1-carboxylate]
– | 47 | – | – | CC(C)(C)OC(=O)N1CCC(c2ccc3[nH]c(-c4ccc(S(C)(=O)=O)cc4F)nc3c2)CC1 [EXAMPLE-57, Tert-butyl 4-{2-[2-fluoro-4-(methylsulfonyl)phenyl]-1H-benzo[d]imidazol-5-yl}piperidine-1-carboxylate]
– | 32.2 | – | – | CCc1cnc(N2CCC(c3ccc4[nH]c(-c5ccc(S(C)(=O)=O)cc5F)nc4c3)CC2)nc1 [EXAMPLE-58, 5-[1-(5-ethylpyrimidin-2-yl)piperidin-4-yl]-2-[2-fluoro-4-(methylsulfonyl)phenyl]-1H-benzo[d]imidazole]
– | 81.6 | ≤ 25 | – | CCOC(=O)N1CCC(c2ccc3nc(-c4ccc(S(C)(=O)=O)cc4F)oc3c2)CC1 [EXAMPLE-72, Ethyl 4-{2-[2-fluoro-4-(methylsulfonyl)phenyl]benzo[d]oxazol-6-yl}piperidine-1-carboxylate]
70.1 | – | – | – | CC(C)(C)OC(=O)N1CCC(c2nc3cc(-c4ccc(-n5cnnn5)cc4)ccc3o2)CC1 [EXAMPLE-11, Tert-butyl 4-{5-[4-(1H-tetrazol-1-yl)phenyl]benzo[d]oxazol-2-yl}piperidine-1-carboxylate]
68.4 | – | – | 100 to 500 | CC(C)(C)OC(=O)N1CC=C(c2cc3cc(-c4ccc(C(N)=O)c(F)c4)ccc3o2)CC1 [EXAMPLE-52, Tert-butyl 4-[5-(4-carbamoyl-3-fluorophenyl)benzofuran-2-yl]-5,6-dihydropyridine-1(2H)-carboxylate]
62.2 | – | – | 500 to 1000 | CC(C)OC(=O)N1CCC(c2nc3cc(-c4ccc(C(N)=O)c(Cl)c4)ccc3o2)CC1 [EXAMPLE-30, Isopropyl 4-[5-(4-carbamoyl-3-chlorophenyl)benzo[d]oxazol-2-yl]piperidine-1-carboxylate]
46.8 | – | – | – | CC(C)(C)OC(=O)N1CCC(c2nc3cc(-c4ccc(C#N)cc4)ccc3o2)CC1 [EXAMPLE-9, Tert-butyl 4-[5-(4-cyanophenyl)benzo[d]oxazol-2-yl]piperidine-1-carboxylate]
39.9 | – | – | – | CCCS(=O)(=O)N1CCC(c2nc3cc(-c4ccc(C(N)=O)c(F)c4)ccc3o2)CC1 [EXAMPLE-53, 2-fluoro-4-{2-[1-(propylsulfonyl)piperidin-4-yl]benzo[d]oxazol-5-yl}benzamide]
64.5 | – | – | – | CC(C)Oc1ccc(-c2ccc3oc(C4CCN(C(=O)OC(C)(C)C)CC4)nc3c2)cc1F [EXAMPLE-22, Tert-butyl 4-[5-(3-fluoro-4-isopropoxyphenyl)benzo[d]oxazol-2-yl]piperidine-1-carboxylate]
– | 73 | 25 to 50 | – | CC(C)(C)OC(=O)N1CCC(c2ccc3nc(-c4ccc(S(C)(=O)=O)cc4F)oc3c2)CC1 [EXAMPLE-67, Tert-butyl 4-{2-[2-fluoro-4-(methylsulfonyl)phenyl]benzo[d]oxazol-6-yl}piperidine-1-carboxylate]
77.7 | – | – | 100 to 500 | CC(C)(C)OC(=O)N1CCC(c2nc3cc(-c4ccc(-n5cnnn5)c(F)c4)ccc3o2)CC1 [EXAMPLE-15, Tert-butyl 4-{5-[3-fluoro-4-(1H-tetrazol-1-yl)phenyl]benzo[d]oxazol-2-yl}piperidine-1-carboxylate]
– | 74.9 | 50 to 250 | – | CC(C)OC(=O)N1CCC(c2ccc3nc(-c4ccc(S(C)(=O)=O)cc4F)sc3c2)CC1 [EXAMPLE-76, Isopropyl 4-{2-[2-fluoro-4-(methylsulfonyl)phenyl]benzo[d]thiazol-6-yl}piperidine-1-carboxylate]
– | 47.3 | – | – | CC(C)(C)OC(=O)N1CCC(c2cnc3oc(-c4ccc(C(F)(F)F)cc4)nc3c2)CC1 [EXAMPLE-87, Tert-butyl 4-{2-[4-(trifluoromethyl)phenyl]oxazolo[5,4-b]pyridin-6-yl}piperidine-1-carboxylate]
– | 59.3 | < 500 | – | CCc1cnc(N2CCC(c3ccc4oc(-c5ccc(S(C)(=O)=O)cc5F)nc4c3)CC2)nc1 [EXAMPLE-62, 5-[1-(5-ethylpyrimidin-2-yl)piperidin-4-yl]-2-[2-fluoro-4-(methylsulfonyl)phenyl]benzo[d]oxazole]
– | 76.6 | ≤ 25 | – | CC(C)OC(=O)N1CCC(c2ccc3nc(-c4ccc(S(C)(=O)=O)cc4F)oc3c2)CC1 [EXAMPLE-71, Isopropyl 4-{2-[2-fluoro-4-(methylsulfonyl)phenyl]benzo[d]oxazol-6-yl}piperidine-1-carboxylate]
– | 46 | 500 to 1000 | – | CC(C)OC(=O)N1CCC(c2ccc3sc(-c4ccc(S(C)(=O)=O)cc4F)nc3c2)CC1 [EXAMPLE-73]
– | 63.8 | – | – | CC(C)(C)OC(=O)N1CC=C(c2ccc3oc(-c4ccc(S(C)(=O)=O)cc4F)nc3c2)CC1 [EXAMPLE-59, Tert-butyl 4-{2-[2-fluoro-4-(methylsulfonyl)phenyl]benzo[d]oxazol-5-yl}-5,6-dihydropyridine-1(2H)-carboxylate]
– | 57.5 | – | – | CC(C)COC(=O)N1CCC(c2ccc3oc(-c4ccc(S(C)(=O)=O)cc4F)nc3c2)CC1 [EXAMPLE-75, Isobutyl 4-{2-[2-fluoro-4-(methylsulfonyl)phenyl]benzo[d]oxazol-5-yl}piperidine-1-carboxylate]
– | 57.6 | – | – | CC(C)c1noc(C2CCN(c3ccc4oc(-c5ccc(S(C)(=O)=O)cc5F)nc4c3)CC2)n1 [EXAMPLE-83, 2-[2-fluoro-4-(methylsulfonyl)phenyl]-5-[4-(3-isopropyl-1,2,4-oxadiazol-5-yl)piperidin-1-yl]benzo[d]oxazole]
– | 46.2 | – | – | CS(=O)(=O)c1ccc(-c2nc3cc(C4=CCN(S(=O)(=O)CCCO)CC4)ccc3o2)c(F)c1 [EXAMPLE-79, 3-{4-[2-(2-fluoro-4-(methylsulfonyl)phenyl)benzo[d]oxazol-5-yl]-5,6-dihydropyridin-1(2H)-ylsulfonyl}propan-1-ol]
– | 59.4 | – | – | Cc1ccc(-c2nc3ccc(C4CCN(C(=O)OC(C)C)CC4)cc3o2)cc1 [EXAMPLE-78, Isopropyl 4-(2-p-tolylbenzo[d]oxazol-6-yl)piperidine-1-carboxylate]
69.6 | – | – | 25 to 50 | O=C(OC1CCC1)N1CCC(c2nc3cc(-c4ccc(-n5cnnn5)cc4F)ccc3o2)CC1 [EXAMPLE-23, Cyclobutyl 4-{5-[2-fluoro-4-(1H-tetrazol-1-yl)phenyl]benzo[d]oxazol-2-yl}piperidine-1-carboxylate]
– | 80.4 | 50 to 250 | – | CC(C)OC(=O)N1CCC(c2ccc3oc(-c4ccc(C(F)(F)F)cc4)nc3c2)CC1 [EXAMPLE-77, Isopropyl 4-{2-[4-(trifluoromethyl)phenyl]benzo[d]oxazol-5-yl}piperidine-1-carboxylate]
35.4 | – | – | – | CCc1cnc(N2CCC(c3nc4cc(-c5ccc(S(C)(=O)=O)cc5F)ccc4o3)CC2)nc1 [EXAMPLE-3, 2-[1-(5-ethylpyrimidin-2-yl)piperidin-4-yl]-5-[2-fluoro-4-(methylsulfonyl)phenyl]benzo[d]oxazole]
73.2 | – | – | 25 to 50 | CC(C)(C)OC(=O)N1CCC(c2nc3ccc(-c4ccc(S(C)(=O)=O)cc4F)cc3o2)CC1 [EXAMPLE-6, Tert-butyl 4-{6-[2-fluoro-4-(methylsulfonyl)phenyl]benzo[d]oxazol-2-yl}piperidine-1-carboxylate]
74.2 | – | – | 50 to 100 | CC(C)(C)OC(=O)N1CCC(c2nc3cc(-c4ccc(S(C)(=O)=O)cc4F)ccc3o2)CC1 [EXAMPLE-4, tert-butyl 4-{5-[2-fluoro-4-(methylsulfonyl)phenyl]benzo[d]oxazol-2-yl}piperidine-1-carboxylate]
78.6 | – | – | 25 to 50 | CC(C)OC(=O)N1CCC(c2nc3cc(-c4ccc(C(F)F)cc4)ccc3o2)CC1 [EXAMPLE-29, Isopropyl 4-{5-[4-(difluoromethyl)phenyl]benzo[d]oxazol-2-yl}piperidine-1-carboxylate]
63.4 | – | – | – | CCC(CC)OC(=O)N1CCC(c2nc3cc(-c4ccc(-n5cnnn5)cc4F)ccc3o2)CC1 [EXAMPLE-25, Pentan-3-yl 4-{5-[2-fluoro-4-(1H-tetrazol-1-yl)phenyl]benzo[d]oxazol-2-yl}piperidine-1-carboxylate]
– | 18.9 | – | – | CC(C)(C)OC(=O)N1CC=C(c2ccc3sc(-c4ccc(S(C)(=O)=O)cc4F)nc3c2)CC1 [EXAMPLE-66, Tert-butyl 4-{2-[2-fluoro-4-(methylsulfonyl)phenyl]benzo[d]thiazol-5-yl}-5,6-dihydropyridine-1(2H)-carboxylate]
